Values quoted from earlier work in US8158161B2, “Methods and pharmaceutical compositions useful for treating psoriasis” (S.U.L.V.E. Ltd., priority 2005, dated 2012).

System: K562 cells
Settings: Leoni 1997

Row | Compound | rank among isothiocyanates tested as inhibitors of leukemic cell growth
1 | C=CCN=C=S [2-Propenyl-isothiocyanate] | most potent inhibitors
2 | S=C=NCc1ccccc1 [Benzyl-isothiocyanate] | most potent inhibitors
